The results in this text go back to a melting point compilation (Tetko et al.; mined from patent text by program, amines drawn as free bases though some values may be those of a salt).

For orientation: melting point means the temperature, or range, at which the solid turns liquid.

Some results are limits rather than exact numbers.

Molecule `c1ccc(CNc2ccnc3ccccc23)cc1` gave a melting point of 132 °C.
To `CN1CCC(c2ccc(N(C)C)cc2)(C(C)(C)O)CC1` belongs 142 to 143 °C; to `COc1cc2cc(-c3cc4cc(OC)c(OC)c(C(C)C)c4cc3C)c(C)cc2c(C(C)C)c1OC`, 215 to 216 °C; to `Cc1ccc(-c2cc3c(n2-c2ccc(O)c(C(=O)O)c2)CCCC3)cc1`, 212 to 214 °C.
As to `ClCc1coc(-c2cc3c(s2)CCCC3)n1`, the melting point is 102 to 103 °C.
The result for `Cc1ccc(-c2ccc(C(CCC(=O)O)=NO)cc2)cc1` reads 176 to 178 °C; that for `NS(=O)(=O)c1cc2cnc(CO)cc2o1`, 222 to 223 °C.
The result for `NC(=O)NCCNc1ccc([N+](=O)[O-])cc1Cl` reads 188 °C; that for `O=C(Nc1cccnn1)N1CCN(c2nccc(-c3ccc(F)c(F)c3)n2)CC1`, 218 to 219 °C.
To `O=S(CCCCF)CCCCCOc1ccc(C2=C(c3ccccc3)CCCc3cc(O)ccc32)cc1` (stereo not given) belongs 233 °C.
`CCOC1(C#N)NC(=O)C(=O)NC1(C#N)OCC` (stereo not given) showed a melting point of 205 to 208 °C.
To `CCc1nc2c(N)nc3cc(OCCN4CCOCC4)ccc3c2n1CC1CCOCC1` belongs 230 to 232 °C; to `CCOc1ccc2c(c1)n(C13CC4CC(CC(C4)C1)C3)c(=O)n2S(=O)(=O)c1ccc(NC(=O)N(CC)CC)cc1OC`, 221 °C.
The result for `CCCCc1nn(-c2cc(NC(=O)CCC)ccc2Cl)c(=O)n1Cc1ccc(-c2ccccc2S(=O)(=O)NC(=O)c2ccccc2Cl)cc1` reads above 130 °C.
`COc1ccc2[nH]c3cc(N)c4c(c3c2c1)C(=O)NC4=O` displayed a melting point of 342 to 345 °C.
To `CC#CCOc1ccc(SC(C(=O)NO)c2ccc(Cl)cc2)cc1` (stereo not given) belongs 152 °C; to `Cn1cc(-c2cccc(-n3ncc4cc(C(C)(C)C)cc(F)c4c3=O)c2CO)cc(Nc2ccc(C(C)(C)O)cn2)c1=O`, 200 to 205 °C; to `O=C1CCc2ccc(C(F)(F)F)cc2CC1`, 78 °C.
The result for `CC(=O)NC[C@H]1CN(c2ccc(/C=C3/C(=O)N(C)c4ccccc43)cc2)C(=O)O1` reads 193 to 195 °C; that for `CCCCc1c(/C=C/C(=O)Oc2ccc([N+](=O)[O-])cc2)cc(OC)c2ccccc12`, 122 °C.
As to `Fc1ccc([C@H]2CC[C@H](N3CCN(Cc4ccc5ccccc5n4)CC3)CC2)cc1`, the melting point lay in the range of 160 to 162 °C.
To `COCc1cc(-c2ccccc2N)[nH]n1` belongs 74 to 78 °C; to `COc1ccc(Cl)c(CC(Nc2nc3ccc(Cl)cc3cc2C(=O)O)C(=O)O)c1` (stereo not given), 180 to 185 °C.
The result for `CNC1(C(=O)O)CCN(OC)CC1` reads above 250 °C; that for `CN1CCN(c2cccc3c2C[C@H](NC(=O)c2ccc(C(F)(F)F)cc2)CO3)CC1`, 212 to 214 °C; that for `CCc1ccc(-c2sc(NC(=O)c3ccc(S(=O)(=O)N4CCCC4C(=O)O)cc3)nc2-c2ccc(Cl)cc2)cc1` (stereo not given), 289 to 292 °C.
To `CC1Cc2cc3c(cc2C(c2ccc([N+](=O)[O-])cc2)=NN1C(=O)CCCC(=O)O)OCO3` (stereo not given) belongs 148 to 150 °C.
With `OCC[C@H]1CN(Cc2ccccc2)CCN1`, the melting point was in the range of 78.9 to 80.4 °C.
The result for `CCCCCCCCC(SCCCCCC)C(=O)Nc1c(SC)ccc2ncccc12` (stereo not given) reads 91 to 92 °C; that for `CC(=O)OCCCc1cc(C=C2SC(=S)N(C)C2=O)cc(CCCOC(C)=O)c1O`, 151 to 155 °C.
To `CCOC(=O)C1C(C)C=CC(NC(=O)OC(C)(C)C)C1[N+](=O)[O-]` (stereo not given) belongs 139 to 145 °C; to `COc1ccc(-c2cc(=O)c3cccnc3o2)cc1`, 269 to 270 °C.
The result for `CCOC(=O)c1cc2cccc(NS(=O)(=O)c3ccc(Cl)s3)c2[nH]1` reads 180 to 181 °C.
The molecule `C(=Cc1ccccc1)COc1ccc(C2OCCO2)cc1` registered a melting point of 102 °C.
The molecule `COc1ccc(Cn2c(N)c(NC(=O)C(C)(C)OCc3ccccc3)c(=O)[nH]c2=S)cc1OC1CCCC1` came in with a melting point of 198 to 202 °C.
To `CCOCc1cc2ccccc2oc1=O` belongs 95 to 96 °C.
For `CCCC(c1ccccc1)c1c(O)c2c(oc1=O)CCCCCC2` (stereo not given), the melting point is 173 to 175 °C.
To `Cc1cc(Cl)cc2c1NS(=O)(=O)N(C(C)C)C2=O` belongs 142 to 144 °C; to `CCOc1nn(Cc2ccc(OCc3cncc(-c4ccccc4)c3)cc2)cc1CCC(=O)O`, 92 to 93 °C.
To `O=c1cc(-c2cccs2)oc2cccc(OCCOc3ccccc3)c12` belongs 173 to 174 °C; to `CCOC(=O)c1cc(S)cc(S)c1`, 49 to 51 °C.
The result for `C[C@H](NC(=O)c1c[nH]c2ncc(C3CC3)nc12)C(C)(C)O` reads 272 to 274 °C; that for `COc1cc(OC)cc(Sc2ccccc2C(=O)O)c1`, 182 °C; that for `CCC(C(C)=CC(CNC(=O)c1cccnc1)=NO)[N+](=O)[O-]` (stereo not given), 105 to 108 °C.
With `COCc1cc([N+](=O)[O-])c(Cl)cc1C(=O)Cl`, the melting point fell in the range of 63 to 65 °C.
For the molecule `NC(Cc1nc2cc(Cl)ccc2nc1CP(=O)(O)O)C(=O)O` (stereo not given), the melting point lay within 181 to 192 °C.
To `CCCCC(=O)NC(C(=O)OCC)=C(N)SCC` belongs 110 °C.
The result for `CC(C(=O)C(C)(C)CF)n1cncn1` (stereo not given) reads 62 to 78 °C; that for `CC(C)(Cn1c(CO)nc2c(N)nc3ccccc3c21)NS(C)(=O)=O`, 262 to 265 °C; that for `COc1ccc(-c2nnn(Cc3ccc(Cl)cc3Cl)c2N)cc1`, 156 to 159 °C.
For the molecule `O=C1NCCN1Cc1ccc(OCc2ccccc2)cc1`, the melting point is 110 to 122 °C.
To `CCOP(=O)(OCC)C(C)(C)CC1(C)NC(=O)NC1=O` (stereo not given) belongs 142 to 146 °C; to `O=C/C=C/c1cc2cc(Cl)ccc2[nH]1`, 207 to 209 °C; to `O=C(Cl)c1cc(Cl)c(Cl)c(Cl)n1`, 60 to 62 °C.
The result for `CN(C)C=C1CCc2ccn(S(=O)(=O)c3ccccc3)c2C1=O` reads 116 to 118 °C; that for `O=C(O)[C@@H](Cc1ccccc1)NS(=O)(=O)N1CCN(c2ccc(Cl)cc2)CC1`, 176 to 178 °C.
Molecule `N=C(N)Nc1nc(CCCCNc2c(NCCSCc3csc(NC(=N)N)n3)c(=O)c2=O)cs1` registered a melting point of 208 to 210 °C.
To `COc1ccc(CNc2nnc(N3CCC(O)CC3)c3ccc(C#N)cc23)cc1Cl` belongs 172 to 174 °C; to `N#Cc1cnc2sc(CCC(=O)O)cc2c1Nc1ccc2[nH]ccc2c1`, 255 °C; to `O=C(O)c1c[nH]c(Sc2cc(Cl)c(Cl)cc2Cl)c1`, 210 to 215 °C.
To `CCOC(=O)c1conc1-c1ccc(Cl)c(Cl)c1` belongs 129 to 130 °C.
To `CSc1ncc2c(=O)[nH]c(-c3ccccc3OCC3CC3)nc2n1` belongs 186 to 187 °C.
With `CCCCC(CCC)c1ccc2[nH]c3cnc(C(=O)OCC)c(C)c3c2c1` (stereo not given), the melting point is 225 to 228 °C.
To `CCOC(=O)C(=O)CSc1ccc(-c2ccccc2)cc1` belongs 154 to 156 °C.
For `C=C(C)C(=O)Nc1ccc(NC(=O)C(=C)C)cc1`, the melting point is 254 to 257 °C.
